According to patent publication US20230167127A1, “COMPOUNDS AND THEIR USE IN THE TREATMENT OF BACTERIAL INFECTION” (Hoffmann-La Roche Inc., priority 2020, published 2023):
Like-named read-outs stand apart in the source and are kept apart here.

System: Escherichia coli ATCC 25922
Experiment: 50% growth inhibitory concentration (IC50) determination, Iso-Sensitest broth dilution
Format: cell-based
Settings: strain Escherichia coli ATCC 25922, 10-point broth dilution, optical density at 600 nm over 16 h, read-out: Escherichia coli growth inhibition IC50
Summary of the method: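 10-point twofold Iso-Sensitest broth dilution (e.g. 50 to 0.097 μM final) with DMSO stocks, incubated at 35±2° C. Growth followed by OD 600 nm every 20 min over 16 h; IC50 derived from growth inhibition during logarithmic phase.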

[1] = Escherichia coli, ATCC25922, 16 h

SMILES | IC50 [1] [nM] | IC50 [nM]
N#Cc1cc(OCC2(N)CC2)cc2c1CC(CCN1CC3(C1)CN(c1ccc4c(n1)NC(=O)CO4)C(=O)O3)C2 (centres unmarked) [Example 197, 6-((1-aminocyclopropyl)methoxy)-2-(2-(6-oxo-7-(3-oxo-3,4-dihydro-2H-pyrido[3,2-b][1,4]oxazin-6-yl)-5-oxa-2,7-diazaspiro[3.4]octan-2-yl)ethyl)-2,3-dihydro-1H-indene-4-carbonitrile] | < 97.7 | 
COc1cc2c(c(Cl)n1)CC(CNCCC1CN(c3cnc4c(n3)NC(=O)CO4)C(=O)O1)C2 (centres unmarked) [Example 50, 6-[5-[2-[(1-chloro-3-methoxy-6,7-dihydro-5H-cyclopenta[c]pyridin-6-yl)methylamino]ethyl]-2-oxo-1,3-oxazolidin-3-yl]-4H-pyrazino[2,3-b][1,4]oxazin-3-one] | < 97.7 | 
Cc1nnc(C)c2c1CC(CNCCC1CN(c3ccc4c(n3)NC(=O)CO4)C(=O)O1)C2 (centres unmarked) [Example 284, 6-[5-[2-[(1,4-dimethyl-6,7-dihydro-5H-cyclopenta[d]pyridazin-6-yl)methylamino]ethyl]-2-oxo-1,3-oxazolidin-3-yl]-4H-pyrido[3,2-b][1,4]oxazin-3-one] | 1270 | 
CNC(=O)COc1cc2c(c(Cl)n1)CC(CNCCC1CN(c3ccc4c(n3)NC(=O)CO4)C(=O)O1)C2 (centres unmarked) [Example 66, 2-[[1-chloro-6-[[2-[2-oxo-3-(3-oxo-4H-pyrido[3,2-b][1,4]oxazin-6-yl)oxazolidin-5-yl]ethylamino]methyl]-6,7-dihydro-5H-cyclopenta[c]pyridin-3-yl]oxy]-N-methyl-acetamide] | 234 | 
Cc1nonc1COc1cc(C#N)c2c(c1)CC(CNCCC1CN(c3cnc4c(n3)NC(=O)CO4)C(=O)O1)C2 (centres unmarked) [Example 392, 6-[(4-methyl-1,2,5-oxadiazol-3-yl)methoxy]-2-[[2-[2-oxo-3-(3-oxo-4H-pyrazino[2,3-b][1,4]oxazin-6-yl)-1,3-oxazolidin-5-yl]ethylamino]methyl]-2,3-dihydro-1H-indene-4-carbonitrile] | < 97.7 | 
O=C1COc2ccc(N3CC(CCNCC4Cc5cccc(F)c5C4)OC3=O)nc2N1 (centres unmarked) [Example 91, 6-[5-[2-[(4-fluoro-2,3-dihydro-1H-inden-2-yl)methylamino]ethyl]-2-oxo-1,3-oxazolidin-3-yl]-4H-pyrido[3,2-b][1,4]oxazin-3-one] | < 97.7 | 
Cc1ncc(F)c2c1CC(CN1CCC3(CC1)CN(c1cnc4c(n1)NC(=O)CO4)C(=O)O3)C2 (centres unmarked) [Example 258, 6-[8-[(4-Fluoro-1-methyl-6,7-dihydro-5H-cyclopenta[c]pyridin-6-yl)methyl]-2-oxo-1-oxa-3,8-diazaspiro[4.5]decan-3-yl]-4H-pyrazino[2,3-b][1,4]oxazin-3-one] | 221 | 
N#Cc1cccc2c1CC(N1CCC(C3CN(c4cnc5c(n4)NC(=O)CO5)C(=O)O3)CC1)C2 (centres unmarked) [Example 349, 2-[4-[2-oxo-3-(3-oxo-4H-pyrazino[2,3-b][1,4]oxazin-6-yl)-1,3-oxazolidin-5-yl]piperidin-1-yl]-2,3-dihydro-1H-indene-4-carbonitrile] | < 97.7 | 
N#Cc1cc(OCCN)cc2c1CC(CNCCC1CN(c3ccc4c(n3)NC(=O)CO4)C(=O)O1)C2 (centres unmarked) [Example 188, 6-(2-aminoethoxy)-2-[[2-[2-oxo-3-(3-oxo-4H-pyrido[3,2-b][1,4]oxazin-6-yl)-1,3-oxazolidin-5-yl]ethylamino]methyl]-2,3-dihydro-1H-indene-4-carbonitrile] | < 97.7 | 
NC(COc1cc(F)c2c(c1)CC(CNCCC1CN(c3ccc4c(n3)NC(=O)CO4)C(=O)O1)C2)C(=O)O (centres unmarked) [Example 267, 2-Amino-3-[[7-fluoro-2-[[2-[2-oxo-3-(3-oxo-4H-pyrido[3,2-b][1,4]oxazin-6-yl)-1,3-oxazolidin-5-yl]ethylamino]methyl]-2,3-dihydro-1H-inden-5-yl]oxy]propanoic acid; formic acid] | < 97.7 | 
CC(C)(N)COc1cc(C#N)c2c(c1)CC(CNCCC1CN(c3ccc4c(n3)NC(=O)CO4)C(=O)O1)C2 (centres unmarked) [Example 203, 6-(2-amino-2-methylpropoxy)-2-(((2-(2-oxo-3-(3-oxo-3,4-dihydro-2H-pyrido[3,2-b][1,4]oxazin-6-yl)oxazolidin-5-yl)ethyl)amino)methyl)-2,3-dihydro-1H-indene-4-carbonitrile; 2,2,2-trifluoroacetic acid] | < 97.7 | 
Cc1ncc(F)c2c1CC(N[C@H]1CC[C@@]3(CC1)CN(c1cnc4c(n1)NC(=O)CO4)C(=O)O3)C2 (some centres unmarked) [Example 298] | 369 | 
N#Cc1cccc2c1CC(CN1CCC3(CN(c4ccc5c(n4)NC(=O)CO5)C(=O)O3)C(CN)C1)C2 (racemic) [Example 252, 2-[[rac-5,6-trans-6-(Aminomethyl)-2-oxo-3-(3-oxo-4H-pyrido[3,2-b][1,4]oxazin-6-yl)-1-oxa-3,8-diazaspiro[4.5]decan-8-yl]methyl]-2,3-dihydro-1H-indene-4-carbonitrile; formic acid] |  | 156
Cc1ncc(F)c2c1CC(CNCCC1CN(c3ccc4c(n3)NC(=O)CO4)C(=O)O1)C2 (centres unmarked) [Example 36, 6-[5-[2-[(4-fluoro-1-methyl-6,7-dihydro-5H-cyclopenta[c]pyridin-6-yl)methylamino]ethyl]-2-oxo-1,3-oxazolidin-3-yl]-4H-pyrido[3,2-b][1,4]oxazin-3-one] | < 97.7 | 
CC(C)(N)COc1cc(F)c2c(c1)CC(CN1CCC3(CC1)CN(c1cnc4c(n1)NC(=O)CO4)C(=O)O3)C2 (single isomer, unassigned; enantiomer b) [Example 378, 6-[8-[[6-(2-Amino-2-methylpropoxy)-4-fluoro-2,3-dihydro-1H-inden-2-yl]methyl]-2-oxo-1-oxa-3,8-diazaspiro[4.5]decan-3-yl]-4H-pyrazino[2,3-b][1,4]oxazin-3-one; formic acid, Enantiomer B] |  | < 97.7
N#Cc1cccc2c1CC(NC1CCC3(CC1)CN(c1ccc4c(n1)NC(=O)CO4)C(=O)O3)C2 (single isomer, unassigned; isomer b) [Example 40, 2-[[2-oxo-3-(3-oxo-4H-pyrido[3,2-b][1,4]oxazin-6-yl)-1-oxa-3-azaspiro[4.5]decan-8-yl]amino]-2,3-dihydro-1H-indene-4-carbonitrile. Isomer B; formic acid] |  | 153
CC(C)(N)COc1cc(F)c2c(c1)CC(CNCC[C@@H]1CN(c3cnc4c(n3)NC(=O)CO4)C(=O)O1)C2 (stereo partly drawn) [Example 342, 6-[(5R)-5-[2-[[6-(2-amino-2-methylpropoxy)-4-fluoro-2,3-dihydro-1H-inden-2-yl]methylamino]ethyl]-2-oxo-1,3-oxazolidin-3-yl]-4H-pyrazino[2,3-b][1,4]oxazin-3-one; formic acid] | 180 | 
N#Cc1cccc2c1CC(NCC(O)CC1CN(c3cnc4c(n3)NC(=O)CO4)C(=O)O1)C2 (single isomer, unassigned; isomer a) [Example 81, 2-[[2-hydroxy-3-[2-oxo-3-(3-oxo-4H-pyrazino[2,3-b][1,4]oxazin-6-yl)-1,3-oxazolidin-5-yl]propyl]amino]-2,3-dihydro-1H-indene-4-carbonitrile, Isomer A; formic acid] | 164 | 
Cc1ncc(F)c2c1CC(CN1CC(C3CN(c4cnc5c(n4)NC(=O)CO5)C(=O)O3)C1)C2 (centres unmarked) [Example 75, 6-[5-[1-[(4-fluoro-1-methyl-6,7-dihydro-5H-cyclopenta[c]pyridin-6-yl)methyl]azetidin-3-yl]-2-oxo-oxazolidin-3-yl]-4H-pyrazino[2,3-b][1,4]oxazin-3-one; formic acid] | 230 | 
NC1c2cccc(Cl)c2CC1CNCCc1cn(-c2ccc3c(n2)NC(=O)CO3)c(=O)o1 (racemic) [Example 170, 6-[2-oxo-5-[2-[[rac-1,2-trans-1-amino-4-chloro-2,3-dihydro-1H-inden-2-yl]methylamino]ethyl]-1,3-oxazol-3-yl]-4H-pyrido[3,2-b][1,4]oxazin-3-one] | < 97.7 | 
NC1c2cccc(Cl)c2CC1CN1CC(C2CN(c3cnc4c(n3)NC(=O)CO4)C(=O)O2)C1 (racemic) [Example 205, 6-[5-[1-[(rac-1,2-trans-1-amino-4-chloro-2,3-dihydro-1H-inden-2-yl)methyl]azetidin-3-yl]-2-oxo-1,3-oxazolidin-3-yl]-4H-pyrazino[2,3-b][1,4]oxazin-3-one] | 123 | 
N#Cc1cccc2c1CC(CN1CC(C3CN(c4cnc5c(n4)NC(=O)CO5)C(=O)O3)C1)C2 (centres unmarked) [Example 76, 2-[[3-[2-oxo-3-(3-oxo-4H-pyrazino[2,3-b][1,4]oxazin-6-yl)-1,3-oxazolidin-5-yl]azetidin-1-yl]methyl]-2,3-dihydro-1H-indene-4-carbonitrile; formic acid] | < 97.7 | 
N#Cc1cccc2c1CC(CNCCc1nn(-c3ccc4c(c3)NC(=O)CO4)c(=O)o1)C2 (centres unmarked) [Example 42, 2-[[2-[5-oxo-4-(3-oxo-4H-1,4-benzoxazin-6-yl)-1,3,4-oxadiazol-2-yl]ethylamino]methyl]-2,3-dihydro-1H-indene-4-carbonitrile; formic acid] | 158 | 
N#Cc1cc(OC2CNC2)cc2c1CC(CNCCC1CN(c3ccc4c(n3)NC(=O)CO4)C(=O)O1)C2 (centres unmarked) [Example 190, 6-(azetidin-3-yloxy)-2-[[2-[2-oxo-3-(3-oxo-4H-pyrido[3,2-b][1,4]oxazin-6-yl)-1,3-oxazolidin-5-yl]ethylamino]methyl]-2,3-dihydro-1H-indene-4-carbonitrile; 2,2,2-trifluoroacetic acid] | < 97.7 | 
O=C1COc2ccc(N3CC(CCNCC4Cc5cc(OC6CNC6)cc(F)c5C4)OC3=O)nc2N1 (centres unmarked) [Example 150, 6-[5-[2-[[6-(azetidin-3-yloxy)-4-fluoro-2,3-dihydro-1H-inden-2-yl]methylamino]ethyl]-2-oxo-1,3-oxazolidin-3-yl]-4H-pyrido[3,2-b][1,4]oxazin-3-one] | < 97.7 | 
Cc1nnc(C)c2c1CC(CNCCC1CN(c3cnc4c(n3)NC(=O)CO4)C(=O)O1)C2 (centres unmarked) [Example 283, 6-[5-[2-[(1,4-dimethyl-6,7-dihydro-5H-cyclopenta[d]pyridazin-6-yl)methylamino]ethyl]-2-oxo-1,3-oxazolidin-3-yl]-4H-pyrazino[2,3-b][1,4]oxazin-3-one] | 888 | 
